Laboratory results: article PMC4155172, “Killing of melanoma cells and their metastases by human lactoferricin derivatives requires interaction with the cancer marker phosphatidylserine” (Biometals, 2014)
Where a SMILES comes first, the peptide text is derived from it. The star is where a group is joined. Octanoyl(6-Me) = CCC(C)CCCCC(=O)*

Legend:
[1] = test system: differentiated non-tumorigenic melanocytes; settings: for melanocytes killed (PI-uptake): 20 µM peptide, 8 h, media containing serum
Method: Human melanocytes used as healthy control cells were isolated from foreskin. Foreskin was cut into small pieces and incubated with 0.3 % trypsin (PAA) overnight at 4 °C and for 1 h at 37 °C. Epidermis was separated. Cells were mechanically removed from the cell layer and centrifuged at 300 g for 3 min. The pellet was re-suspended and cells further cultured in melanocyte growth medium (Biomedica, Vienna, Austria, PromoCell GmbH, Heidelberg, Germany). All cells were kept in a 5 % CO2 atmosphere at 37 °C. At 90 % confluence cell-culture flasks were passaged after detachment with accutase (PAA, Pasching Austria). All cell cultures were periodically checked for mycoplasma.
Cells were collected, re-suspended in media and diluted to a concentration of 10^6 cells/ml. Aliquots of 10^5 cells/100 µl media were incubated with different amount of peptides (0–80 µM) for 8 h at 37 °C and 5 % CO2. Propidium iodide (PI) (2 µl/10^5cells of 50 µg/ml, Invitrogen, Camarillo, CA, USA) was added and cells were again incubated for 5 min at room temperature in the dark. Excitation and emission wavelengths were 536 and 617 nm, respectively. Cytotoxicity was calculated from the percentage of PI positive cells in media alone (P0) and in the presence of peptide (PX). […] Triton-X-100 was used to determine 100 % of PI positive cells (P100).1 %PI-uptake=100∗(PX-P0)/(P100-P0)

[2] = Tryptophan fluorescence and acrylamide quenching with DPPC membranes; settings: second symbol of cancer mimic/healthy mimic; also: key: +, peptide effect; ++, increasing peptide effect; +++: etc; ++++: etc; −, no peptide effect
Method: (§1) Appropriate amounts of respective phospholipid stock solution were dried under a stream of nitrogen and stored in vacuum overnight to completely remove organic solvents. The dry lipid film was then dispersed in phosphate buffered saline (PBS, 20 mM NaPi, 130 mM NaCl, pH 7.4) and hydrated at a temperature well above the gel to fluid phase transition of the respective phospholipid under intermittent vigorous vortex-mixing. The lipid concentration was 0.1 weight % for calorimetric and 2 % for leakage experiments. Hydration was carried out in presence or absence of peptides at a lipid-to-peptide ratio of 25:1 and 12.5:1 using a protocol described for POPS (Jiménez-Monreal et al. [1998]), DPPS (Jing et al. [2005]) and DPPC (Sevcsik et al. [2007]). Briefly hydration of POPS films occurred at 30 °C, DPPS at 65 °C and DPPC at 50 °C, for 2 h with vortexing for 1 min every 15 min. The hydration of the lipid mixtures DPPS/DPPC 1:5 and DPPS/DPPC 1:1 were performed at 65 °C for 2 h by vortexing accompanied by one freeze–thaw cycle every 15 min. The fully hydrated samples were stored for at least 1 h at room temperature until measurement.
(§2) Fluorescence spectroscopy experiments were performed using a SPEX Fluoro Max-3 spectrofluorimeter (Jobin–Yvon, Longjumeaum, France) and spectra were analyzed with Datamax software.
(§3) Tryptophan fluorescence spectra were obtained at room temperature using an excitation wavelength of 282 nm and a slit width of 5 nm for excitation and emission monochromators. Quenching of Tryptophan was carried out in the presence and absence of phospholipid liposomes (lipid-to-peptide ratio 25:1) using 0.1, 0.4 and 0.7 M acrylamide. The data were analyzed according to the Stern–Volmer equation (Eq. 2):2 F0F0FF=1+KSVQ where F0 and F represent the fluorescence emission intensities in the absence and presence of the quencher molecule (Q) and KSV is the Stern–Volmer quenching constant, which is a quantitative measure for the accessibility of tryptophan to acrylamide (Tao and Cho [1979]).

[3] = Differential scanning calorimetry of DPPS liposomes; settings: for Bilayer perturbation—DSC, cancer mimic: first symbol of cancer mimic/healthy mimic; as to Bilayer perturbation—DSC, cancer mimic: key: +, peptide effect; ++, increasing peptide effect; +++: etc; ++++: etc; −, no peptide effect
Method: as §1
(§4) DSC experiments were performed with a differential scanning calorimeter (VP-DSC) from MicroCal, Inc. (Northhampton, MA, USA). Heating scans were performed at a scan rate of 30 °C/h (pre-scan thermostating 30 min) with a final temperature of approximately 10 °C above the main transition temperature (Tm) and cooling scans at the same scan rate (pre-scan thermostating 1 min) with a final temperature approximately 20 °C below Tm. The heating/cooling cycle was performed three times. Enthalpies were calculated by integration of the peak areas after normalization to phospholipid concentration and baseline adjustment using the MicroCal Origin software (VP-DSC version). The phase transition temperature was defined as the temperature at the peak maximum (McElhaney [1982]).

[4] = ANTS/DPX leakage from POPC LUVs; settings: for ANTS/DPX release from POPC liposomes: 2–8 µM peptide; for Permeability—ANTS/DPX leakage, healthy mimic: second symbol of cancer mimic/healthy mimic; as to Permeability—ANTS/DPX leakage, healthy mimic: key: +, peptide effect; ++, increasing peptide effect; +++: etc; ++++: etc; −, no peptide effect
Method: [The procedure below names another target; the source lists this target under the same test.] as §1
(§5) Leakage of aqueous contents from liposomes was determined using the 8-aminonaphthalene-1,3,6-trisulfonic acid/p-xylene-bis-pyridinium bromide (ANTS/DPX) assay (Ellens et al. [1985]). Lipid films (preparation see above) were hydrated with 12.5 mM ANTS, 45 mM DPX, 68 mM NaCl, 10 mM HEPES (4-(2-hydroxyethyl)-1-piperazineethanesulfonic acid) at pH 7.4 following a standard procedure. Subsequently, the dispersions were extruded 20 times through a polycarbonate filter (Millipore-Isopore™) of 0.1 µm pore size to obtain LUVs. Unilamellarity and size were tested by X-ray and dynamic light scattering, respectively. The ANTS/DPX encapsulating vesicles were separated from free ANTS/DPX by exclusion chromatography using a column filled with Sephadex™ G-75 (Amesham Biosciences) fine gel swollen in an isosmotic buffer (10 mM HEPES, 140 mM NaCl, pH 7.4). The void volume fractions were collected and the phospholipid concentration was determined by phosphate analysis (Bartlett [1959]; Broekhuyse [2005]). The fluorescence measurements were performed in 2 mL of the isosmotic buffer in a quartz cuvette at 37 °C. Aliquots of LUVs were diluted with the isosmotic buffer to a final lipid concentration of 50 µM. Fluorescence spectra were obtained at 37 °C using an excitation wavelength of 360 nm, an emission wavelength of 530 nm and a slit width of 5 nm for both excitation and emission monochromators. Fluorescence emission was recorded as a function of time before and after the addition of incremental amounts of peptide. The fluorescence increase due to leakage and subsequent dilution of quenched dye was measured after addition of peptides. Peptides were added to final concentrations of 2, 4 and 8 µM, corresponding to peptide-to-lipid molar ratios of 1:25, 1:12.5 and 1:6.25, respectively. Data are presented in terms of fluorescence intensity (IF and were calculated using Eq. 3:3 IF=F-F0/Fmax-F0 F is the measured fluorescence, F0 the initial fluorescence without peptide and Fmax the fluorescence corresponding to 100 % leakage gained by addition of 1 % Triton X-100.

[5] = Tryptophan fluorescence and acrylamide quenching with DPPS membranes; parameters: key: +, peptide effect; ++, increasing peptide effect; +++: etc; ++++: etc; −, no peptide effect; settings: first symbol of cancer mimic/healthy mimic (PS)
Method: as §1, §2, §3

[6] = test system: melanoma metastases WM164; test: Propidium iodide-uptake toxicity assay, melanoma metastases WM164; format: cell-based, human; settings: 20 µM peptide, 8 h
From the text: (§6) Epidermis was separated. […] All cell cultures were periodically checked for mycoplasma.

[7] = ANTS/DPX leakage from POPS LUVs; settings: for ANTS/DPX release from POPS vesicles: 50 µM lipid LUVs; for specificity/selectivity for cancer over non-cancer mimic, ANTS/DPX leakage: POPS versus POPC LUVs; for Permeability—ANTS/DPX leakage, cancer mimic: first symbol of cancer mimic/healthy mimic; as to Permeability—ANTS/DPX leakage, cancer mimic: key: +, peptide effect; ++, increasing peptide effect; +++: etc; ++++: etc; −, no peptide effect
Method: as §1, §5

[8] = Differential scanning calorimetry of DPPC/DPPS 5:1 liposomes; settings: lipid to peptide 25:1, split transition given as peak/peak
Method: as §1, §4

[9] = Differential scanning calorimetry of DPPC/DPPS 1:1 liposomes; settings: lipid to peptide 25:1
Method: as §1, §4

[10] = test system: melanoma cell line SBcl-2; test: Propidium iodide-uptake toxicity assay, melanoma SBcl-2; format: cell-based, human; parameters: Toxicity—PI uptake, cancer cells / Cancer specificity: key: +, peptide effect; ++, increasing peptide effect; +++: etc; ++++: etc; −, no peptide effect; settings: for Toxicity—PI uptake, cancer cells: first symbol of cancer cells/healthy cells
From the text: as §6

[11] = Differential scanning calorimetry of DPPC liposomes; settings: for Bilayer perturbation—DSC, healthy mimic: second symbol of cancer mimic/healthy mimic
Method: as §1, §4

[12] = test system: RBCs; settings: 2.5 % RBCs, 500 µg peptide/ml; ref Zweytick et al. [2011b]; cited from earlier work
From the text: The correlation of activity against bacteria with activity on bacterial model systems for lactoferricin derived peptides and their N-acylated derivatives was shown recently (Zweytick et al. [2011b]).

[13] = test system: E. coli; settings: ref Zweytick et al. [2011b]; cited from earlier work
From the text: It has been reported by Yang et al. (Yang et al. [2004]) that a prerequisite for antitumor but not for antibacterial peptides derived of bovine lactoferrin is a minimum net charge close to +7 and to consist of at least 14 amino acids.

[14] = 25:1 lipid-to-peptide molar ratio
[15] = DPPS liposomes, lipid to peptide 25:1, split transition given as peak/peak
[16] = 50 µM lipid LUVs, pH 7.4, 37 °C
[17] = 8 µM peptide (peptide-to-lipid 1:6.25), 10 mM HEPES 140 mM NaCl pH 7.4, 37 °C, fluorescence
[18] = DPPC liposomes in PBS pH 7.4, lipid to peptide 25:1, scan rate 30 °C/h
[19] = DPPC liposomes, lipid to peptide 25:1
[20] = DPPC liposomes, lipid to peptide 25:1, transition half-width
[21] = DPPC liposomes, lipid to peptide 12.5:1

Molecule	Toxicity—PI uptake, healthy cells [1]	melanocytes killed (PI-uptake) [1]	Bilayer affinity—quenching, healthy mimic [2]	reduction of the main transition enthalpy of DPPS [3, 14]	T1/2 [3, 15]	Bilayer perturbation—DSC, cancer mimic [3]	ANTS/DPX release from POPC liposomes [4, 16]	Permeability—ANTS/DPX leakage, healthy mimic [4]	Bilayer affinity—quenching, cancer mimic [5]	specificity, PI-uptake ratio melanoma metastases WM164 versus melanocytes [6]	ANTS/DPX release from POPS vesicles [7, 17]	Permeability—ANTS/DPX leakage, cancer mimic [7]	T1/2 [9]	Tm [9]	ΔH m [9]	ΔH pre [11, 18]	Tpre [11, 19]	ΔH m [11, 19]	T1/2 [11, 20]	Bilayer perturbation—DSC, healthy mimic [11]	other results
PFWRIRIRRPRRIRIRWFP-NH2 [R-DIM-P-LF11-322, retro repeat derivative: LF11-322-proline-LF11-322 retro]	−	< 1%	−	70%	1.53 °C	+++	< 5%	−	++	> 500 fold	90–100%	+++	1.08 °C	42.4 °C	7.9 kcal/mol	1.5 kcal/mol	34.5 °C	9.1 kcal/mol	0.25 °C	−	decrease of the transition temperature of DPPS [3, 14]: ~5 °C; Tm [3, 15]: 47.9 °C; ΔH m [3, 15]: 3.1 kcal/mol; specificity/selectivity for cancer over non-cancer mimic, ANTS/DPX leakage [7]: up to 20 fold; T1/2 [8]: 0.83 °C; Tm [8]: 42.2 °C; ΔH m [8]: 8.2 kcal/mol; specificity for cancer cells, PI-uptake ratio melanoma SBcl-2 versus melanocytes ([10]; 20 µM peptide, 8 h): higher than 1,000 fold; PI positive SBcl-2 cells ([10]; 20 µM peptide, 8 h, media containing serum): more than 80%; Cancer specificity ([10]; cancer cells/healthy cells): ++++; Toxicity—PI uptake, cancer cells [10]: +++; Tm [11, 19]: 41.3 °C
CCC(C)CCCCC(=O)N1CCC[C@H]1C(=O)N[C@@H](Cc1ccccc1)C(=O)N[C@@H](Cc1c[nH]c2ccccc12)C(=O)N[C@@H](CCCNC(=N)N)C(=O)N[C@H](C(=O)N[C@@H](CCCNC(=N)N)C(=O)N[C@H](C(=O)N[C@@H](CCCNC(=N)N)C(=O)N[C@@H](CCCNC(=N)N)C(N)=O)[C@@H](C)CC)[C@@H](C)CC (stereo partly drawn) [6-MO-LF11-322] ({Octanoyl(6-Me)}-PFWRIRIRR-NH2)	+	~ 15%	+	35%	2.24 °C	++		+	++		~70%	++	2.45 °C	43.3 °C	5.4 kcal/mol	0.4 kcal/mol	34.6 °C	9.1 kcal/mol	0.26 °C	+	lysis of RBCs [12]: 20%; leakage of POPC vesicles ([4]; peptide-to-lipid molar ratio of 1:6.25 (8 µM), 50 µM lipid LUVs, pH 7.4, 37 °C): about 20%; ANTS/DPX release from POPS vesicles ([7]; 4 µM peptide (peptide-to-lipid 1:12.5), pH 7.4, 37 °C): ~ 30%; specificity/selectivity for cancer over non-cancer mimic, ANTS/DPX leakage [7]: threefold; specificity for cancer cells, PI-uptake ratio melanoma SBcl-2 versus melanocytes ([10]; 20 µM peptide, 8 h): threefold to fourfold; IC50 ([10]; PI-uptake, cancer cells, 8 h, media containing serum): ~20 µM; specificity for cancer cells after 1 h ([10]; after 1 h, data not shown): sevenfold; Toxicity—PI uptake, cancer cells [10]: ++
PFWRIRIRR-NH2 [LF11-322]			−	10%		+	< 5%	−	++	twofold	~ 20%	+	2.42 °C	44.2 °C	8.3 kcal/mol	1.1 kcal/mol	34.8 °C	9.0 kcal/mol	0.17 °C	−	T1/2 ([3]; DPPS liposomes, lipid to peptide 12.5:1): 2.48 °C; T1/2 [8]: 0.80 °C; Tm [8]: 42.4 °C; ΔH m [8]: 10.1 kcal/mol; killing (PI-uptake) of SBcl-2 ([10]; 80 µM peptide, 8 h, media containing serum, 37 °C): < 10%; minimal inhibitory concentration for E. coli [13]: 8 to 16 µg/mL; T1/2 [11, 21]: 0.26 °C; Tm [11, 21]: 41.3 °C; Tpre [11, 21]: 34.5 °C; ΔH m [11, 21]: 9.2 kcal/mol; ΔH pre [11, 21]: 1.0 kcal/mol; Tm [11, 19]: 41.3 °C
